Common to all, as to assay type: cell-based
In one experiment the test system is rat CRF2R α receptor. Put plainly: cAMP agonism at rat CRF2R α receptor in A7R5 rat aortic smooth muscle cells (Example 8). To be noted: cAMP HTRF, A7R5 rat aortic smooth muscle cell line, 0% HSA. The method in brief: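 Potency (EC50) is the concentration reaching half-maximal activation, with responses scaled so that 1000 nM urocortin 2 equals 100%. Intracellular cAMP was quantified by homogeneous time-resolved fluorescence at 665/620 nm, 1 h after lysis-buffer reagents. Compound stimulation lasted 30 min at room temperature on 2000 IBMX-treated (2 mM) cells per well in HEPES-buffered HBSS.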
A general note: In TR-FRET formats the signal depends on donor and acceptor labels being close together.

The target of another experiment is T1, CRF1R receptor (Homo sapiens, UniProt P34998).
T1 construct: host or cells: CHO-K1 clone 2
T1 sequence (P34998 24-415): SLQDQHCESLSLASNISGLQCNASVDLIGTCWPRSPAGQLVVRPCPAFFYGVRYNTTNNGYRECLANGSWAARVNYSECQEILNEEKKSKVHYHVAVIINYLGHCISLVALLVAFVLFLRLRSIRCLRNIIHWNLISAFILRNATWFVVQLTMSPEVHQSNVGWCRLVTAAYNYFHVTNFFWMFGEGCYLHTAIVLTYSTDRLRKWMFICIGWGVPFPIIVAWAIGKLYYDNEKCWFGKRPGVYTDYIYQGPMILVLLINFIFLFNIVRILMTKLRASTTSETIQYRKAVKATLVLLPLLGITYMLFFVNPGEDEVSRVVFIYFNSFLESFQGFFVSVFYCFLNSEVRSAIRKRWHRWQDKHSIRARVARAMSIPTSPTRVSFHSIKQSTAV
Put plainly: cAMP activity at anti-target CRF1R, CRF1R-overexpression CHO cell line (Example 9). To be noted: for EC50: 0% HSA. The method in brief: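 Using thawed CRF1R-overexpressing CHO cells at 2000 per well, compound is applied for 30 min at RT in HBSS/HEPES buffer with IBMX. Cellular cAMP content is determined via HTRF, and percent activity is calculated against 1000 nM UCN2 defined as 100%.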

In the next experiment the target is T2, human CRF2α receptor (Homo sapiens, UniProt Q13324).
T2 construct: expressed in transfected cells; host or cells: TeloHEAC
T2 sequence (Q13324 1-411): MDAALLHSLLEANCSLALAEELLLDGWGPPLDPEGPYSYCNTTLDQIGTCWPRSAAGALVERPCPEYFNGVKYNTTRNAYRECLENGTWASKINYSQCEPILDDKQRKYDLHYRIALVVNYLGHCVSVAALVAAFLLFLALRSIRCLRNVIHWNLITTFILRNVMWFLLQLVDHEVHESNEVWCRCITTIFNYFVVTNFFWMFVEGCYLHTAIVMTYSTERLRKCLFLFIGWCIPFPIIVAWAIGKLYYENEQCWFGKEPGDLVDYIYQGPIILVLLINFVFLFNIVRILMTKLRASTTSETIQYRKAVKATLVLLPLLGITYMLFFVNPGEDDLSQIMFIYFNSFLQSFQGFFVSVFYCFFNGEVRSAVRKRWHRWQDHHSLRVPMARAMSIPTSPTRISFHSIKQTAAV
Put plainly: cAMP agonism at human CRF2 α receptor in TeloHEAC cells (Example 7). The conditions noted are these: cAMP HTRF, TeloHEAC cells stably expressing human CRF2 α. The method in brief: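 Steps: thaw and wash cells; suspend in 1×HBSS, 20 mM HEPES, 0 or 0.1% HSA, 2 mM IBMX; add compound, 30 min RT; lyse with HTRF reagents, 1 h; read 665/620 nm. EC50 calculated, E% versus 1000 nM UCN2.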

[1] abbreviates: CRF1R-overexpression CHO cell line.
[2] abbreviates: CRF1R-overexpression CHO cell line, read-out: Emax (%).
Setting [3] is: 0% HSA, read-out: EC50 [nM], 0% HSA.
Where [4] appears, read: 0.1% HSA, read-out: EC50 [nM], 0.1% HSA.

Like-named read-outs stand apart in the source and are kept apart here. Starred links: 1 amine or outer side, 2 acyl side, 3 side chain; linkers in the order of their positions; H or OH if unused. Non-standard residues stand in square brackets, D forms with d. Residues, ends and D or L forms follow the SMILES beside them. Groups on a side chain read outwards from the residue. *: point of attachment. C18 diacid = O=C(O)CCCCCCCCCCCCCCCCC(=O)*; γGlu = O=C(O)[C@H](CCC(=O)[*:2])N[*:1]; AEEA = NCCOCCOCC(=O)O; Aib = CC(C)(N)C(=O)O A value given as a limit tells only on which side of the number the result lay.

Turning to `CC[C@H](C)[C@H](N)C(=O)N[C@H](C(=O)N[C@@H](CC(C)C)C(=O)N[C@@H](CO)C(=O)N[C@@H](CC(C)C)C(=O)N[C@@H](CC(=O)O)C(=O)N[C@H](C(=O)N1CCC[C@H]1C(=O)N[C@H](C(=O)N[C@@H](CCCCN)C(=O)N[C@@H](CC(C)C)C(=O)N[C@@H](CCCCNC(=O)COCCOCCNC(=O)COCCOCCNC(=O)CC[C@H](NC(=O)CCCCCCCCCCCCCCCCC(=O)O)C(=O)O)C(=O)N[C@@H](CCC(N)=O)C(=O)N[C@H](C(=O)N[C@@H](CC(C)C)C(=O)N[C@@H](CC(C)C)C(=O)N[C@@H](CCC(=O)O)C(=O)N[C@@H](CCC(N)=O)C(=O)N[C@@H](C)C(=O)N[C@@H](CCCCN)C(=O)N[C@@H](CCC(N)=O)C(=O)N[C@@H](CCCCN)C(=O)NC(C)(C)C(=O)N[C@@H](CC(C)C)C(=O)N[C@@H](CCCNC(=N)N)C(=O)N[C@@H](C)C(=O)N[C@@H](CCC(N)=O)C(=O)N[C@@H](C)C(=O)N[C@@H](CCC(=O)O)C(=O)N[C@H](C(=O)N[C@@H](CC(N)=O)C(=O)N[C@H](C(=O)N[C@@H](CCCNC(=N)N)C(=O)N[C@H](C(=O)N[C@@H](CC(C)C)C(=O)N[C@@H](CCC(=O)O)C(=O)N[C@@H](CCCNC(=N)N)C(=O)N[C@H](C(N)=O)C(C)C)[C@@H](C)CC)C(C)C)[C@@H](C)O)[C@@H](C)CC)[C@@H](C)CC)C(C)C)C(C)C` [compound 46] (H-IVLSLDVPIKLK([AEEA-AEEA-γGlu-C18 diacid])QILLEQAKQK[Aib]LRAQAETNVRILERV-NH2; N-terminus assumed), the EC50 is 8.97 nM with rat CRF2R α receptor, > 1000 nM on CRF1R receptor (setting [1]) and 0.52 nM at human CRF2α receptor (setting [3]). On CRF1R receptor (setting [2]), the Emax was determined as 5.88%.
Consider `CC[C@H](C)[C@H](NC(=O)[C@H](CCC(N)=O)NC(=O)[C@H](CCCCNC(=O)COCCOCCNC(=O)COCCOCCNC(=O)CC[C@H](NC(=O)CCCCCCCCCCCCCCCCC(=O)O)C(=O)O)NC(=O)[C@@H](NC(=O)[C@H](CCCCN)NC(=O)[C@@H](NC(=O)[C@@H]1CCCN1C(=O)[C@@H](NC(=O)[C@H](CC(=O)O)NC(=O)[C@H](CC(C)C)NC(=O)[C@H](CO)NC(=O)[C@H](CC(C)C)NC(=O)[C@@H](NC(=O)[C@@H](N)Cc1ccccc1)[C@@H](C)O)C(C)C)[C@@H](C)O)[C@@H](C)CC)C(=O)N[C@@H](CC(C)C)C(=O)N[C@@H](CC(C)C)C(=O)N[C@@H](CCCCN)C(=O)N[C@@H](CCC(N)=O)C(=O)N[C@@H](CCC(N)=O)C(=O)N[C@@H](CCCCN)C(=O)N[C@@H](CCC(N)=O)C(=O)N[C@@H](CCCCN)C(=O)N[C@@H](CCCCN)C(=O)N[C@@H](CCC(=O)O)C(=O)N[C@@H](CCCNC(=N)N)C(=O)N[C@@H](CCC(N)=O)C(=O)N[C@@H](CCC(N)=O)C(=O)N[C@@H](C)C(=O)N[C@@H](CCC(=O)O)C(=O)N[C@@H](CCCCN)C(=O)N[C@@H](CC(N)=O)C(=O)N[C@@H](CCCCN)C(=O)N[C@@H](CCC(N)=O)C(=O)N[C@@H](CC(C)C)C(=O)N[C@@H](CC(C)C)C(=O)N[C@@H](CCC(=O)O)C(=O)N[C@@H](CCCNC(=N)N)C(=O)N[C@H](C(N)=O)C(C)C` [compound 52] (H-FTLSLDVPTKIK([AEEA-AEEA-γGlu-C18 diacid])QILLKQQKQKKERQQAEKNKQLLERV-NH2; N-terminus assumed), for which the 50% effective concentration (EC50) was 0.76 nM in the experiment on rat CRF2R α receptor, > 1000 nM at CRF1R receptor (setting [1]), 0.7 nM at human CRF2α receptor (setting [3]) and 45.8 nM on human CRF2α receptor (setting [4]). Further, the Emax on CRF1R receptor (setting [2]) came to 5.3%.
In the case of `CC[C@H](C)[C@H](NC(=O)[C@H](CCC(N)=O)NC(=O)[C@H](CCCCNC(=O)COCCOCCNC(=O)COCCOCCNC(=O)CC[C@H](NC(=O)CCCCCCCCCCCCCCCCC(=O)O)C(=O)O)NC(=O)[C@@H](NC(=O)[C@H](CCCCN)NC(=O)[C@@H](NC(=O)[C@@H]1CCCN1C(=O)[C@@H](NC(=O)[C@H](CC(=O)O)NC(=O)[C@H](CC(C)C)NC(=O)[C@H](CO)NC(=O)[C@H](CC(C)C)NC(=O)[C@@H](NC(=O)[C@@H](N)Cc1ccccc1)[C@@H](C)O)C(C)C)[C@@H](C)O)[C@@H](C)CC)C(=O)N[C@@H](CC(C)C)C(=O)N[C@@H](CC(C)C)C(=O)N[C@@H](CCCCN)C(=O)N[C@@H](CCC(N)=O)C(=O)N[C@@H](CCC(N)=O)C(=O)N[C@@H](CCCCN)C(=O)N[C@@H](CCC(N)=O)C(=O)N[C@@H](CCCCN)C(=O)N[C@@H](CCCCN)C(=O)N[C@@H](CCC(=O)O)C(=O)N[C@@H](CCCNC(=N)N)C(=O)N[C@@H](CCC(N)=O)C(=O)N[C@@H](CCC(N)=O)C(=O)N[C@@H](C)C(=O)N[C@@H](CCC(=O)O)C(=O)N[C@H](C(=O)N[C@@H](CC(N)=O)C(=O)N[C@@H](CCCCN)C(=O)N[C@@H](CCC(N)=O)C(=O)N[C@@H](CC(C)C)C(=O)N[C@@H](CC(C)C)C(=O)N[C@@H](CCC(=O)O)C(=O)N[C@@H](CCCNC(=N)N)C(=O)N[C@H](C(N)=O)C(C)C)[C@@H](C)O` [compound 53] (H-FTLSLDVPTKIK([AEEA-AEEA-γGlu-C18 diacid])QILLKQQKQKKERQQAETNKQLLERV-NH2), the half-maximal effective concentration (EC50) in the experiment on rat CRF2R α receptor is 1.32 nM; at CRF1R receptor (setting [1]) it was > 1000 nM; on human CRF2α receptor (setting [3]) it was 1.01 nM; on human CRF2α receptor (setting [4]), 55.1 nM. Further, the Emax on CRF1R receptor (setting [2]) was 4.14%.
On to `CC[C@H](C)[C@H](NC(=O)[C@H](CCC(N)=O)NC(=O)[C@H](CCCCNC(=O)COCCOCCNC(=O)COCCOCCNC(=O)CC[C@H](NC(=O)CCCCCCCCCCCCCCCCC(=O)O)C(=O)O)NC(=O)[C@H](CC(C)C)NC(=O)[C@H](CCCCN)NC(=O)[C@@H](NC(=O)[C@@H]1CCCN1C(=O)[C@@H](NC(=O)[C@H](CC(=O)O)NC(=O)[C@H](CC(C)C)NC(=O)[C@H](CO)NC(=O)[C@H](CC(C)C)NC(=O)[C@@H](NC(=O)[C@@H](N)Cc1ccccc1)[C@@H](C)O)C(C)C)[C@@H](C)CC)C(=O)N[C@@H](CC(C)C)C(=O)N[C@@H](CC(C)C)C(=O)N[C@@H](CCCCN)C(=O)N[C@@H](CCC(N)=O)C(=O)N[C@@H](CCC(N)=O)C(=O)N[C@@H](CCCCN)C(=O)N[C@@H](CCC(N)=O)C(=O)N[C@@H](CCCCN)C(=O)N[C@@H](CCCCN)C(=O)N[C@@H](CCC(=O)O)C(=O)N[C@@H](CCCNC(=N)N)C(=O)N[C@@H](CCC(N)=O)C(=O)N[C@@H](CCC(N)=O)C(=O)N[C@@H](C)C(=O)N[C@@H](CCC(=O)O)C(=O)N[C@H](C(=O)N[C@@H](CC(N)=O)C(=O)N[C@H](C(=O)N[C@@H](CCC(N)=O)C(=O)N[C@@H](CC(C)C)C(=O)N[C@@H](CC(C)C)C(=O)N[C@@H](CCC(=O)O)C(=O)N[C@@H](CCCNC(=N)N)C(=O)N[C@H](C(N)=O)C(C)C)C(C)C)[C@@H](C)O` [compound 54] (H-FTLSLDVPIKLK([AEEA-AEEA-γGlu-C18 diacid])QILLKQQKQKKERQQAETNVQLLERV-NH2), for which the EC50 was determined as 1.51 nM in the experiment on rat CRF2R α receptor, 0.57 nM on human CRF2α receptor (setting [3]) and 24.5 nM at human CRF2α receptor (setting [4]). This compound also showed an Emax at CRF1R receptor (CHO) of 2.72%.

For orientation: EC50 means the concentration that produces a half-maximal response. One may read the Emax as the greatest response seen or fitted, relative to the assay's reference.

(Values after patent US12679878B2, “CRF2 receptor agonists and their use in therapy” (SANOFI, priority 2020, dated 2026).)
